US9012655B2, “Antimicrobial/adjuvant compounds and methods” (Denouamed, Inc., priority 2011, dated 2015)
In brackets after ≈: the same amount, converted by molar mass.

How the values were obtained:
Assay in all cases: MIC panel of challenge pathogens (CLSI)
Assay type in all cases: cell-based
Bacillus cereus NCTC6349 = conditions: Bacillus cereus NCTC6349; for MIC: read-out: 100% inhibition; for MIC50: read-out: MIC50 (50%); for MIC80: read-out: MIC80 (80%)
Summary of the method: (§1)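 Broth microdilution per CLSI guidelines. Final inoculum 2-8×10^5 CFU/ml, compounds serially two-fold diluted from 128 mg/L top concentration. Incubated in the dark at 30-37° C for 24-48 h, aerobic or anaerobic as appropriate. MIC read visually as 100% inhibition endpoint; MIC50 and MIC80 also reported.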

[1] = test system: Enterococcus faecalis ATCC29212; conditions: Enterococcus faecalis ATCC29212; for MIC: read-out: 100% inhibition; for MIC50: read-out: MIC50 (50%); for MIC80: read-out: MIC80 (80%)
Summary of the method: as §1

[2] = test system: Enterococcus faecalis ATCC51299; conditions: Enterococcus faecalis ATCC51299; for MIC: read-out: 100% inhibition; for MIC50: read-out: MIC50 (50%); for MIC80: read-out: MIC80 (80%)
Summary of the method: as §1

[3] = test system: Enterococcus faecium ATCC700221; conditions: Enterococcus faecium ATCC700221; for MIC: read-out: 100% inhibition; for MIC50: read-out: MIC50 (50%); for MIC80: read-out: MIC80 (80%)
Summary of the method: as §1

[4] = test system: Staphylococcus aureus ATCC43300; conditions: Staphylococcus aureus ATCC43300; for MIC: read-out: 100% inhibition; for MIC50: read-out: MIC50 (50%); for MIC80: read-out: MIC80 (80%)
Summary of the method: as §1

[5] = test system: Staphylococcus aureus AUR131 007035; conditions: AUR131007035, Staphylococcus aureus AUR131 007035; for MIC: read-out: 100% inhibition; for MIC50: read-out: MIC50 (50%); for MIC80: read-out: MIC80 (80%)
Summary of the method: as §1

[6] = test system: Staphylococcus aureus AUR58 7005; conditions: AUR587005, Staphylococcus aureus AUR58 7005; for MIC: read-out: 100% inhibition; for MIC50: read-out: MIC50 (50%); for MIC80: read-out: MIC80 (80%)
Summary of the method: as §1

[7] = test system: Staphylococcus aureus AUR59 7005; conditions: AUR597005, Staphylococcus aureus AUR59 7005; for MIC: read-out: 100% inhibition; for MIC50: read-out: MIC50 (50%); for MIC80: read-out: MIC80 (80%)
Summary of the method: as §1

[8] = test system: Staphylococcus aureus AUR60 7005; conditions: AUR607005, Staphylococcus aureus AUR60 7005; for MIC: read-out: 100% inhibition; for MIC50: read-out: MIC50 (50%); for MIC80: read-out: MIC80 (80%)
Summary of the method: as §1

[9] = test system: Staphylococcus aureus EUP MRSA002; conditions: EUPMRSA002, Staphylococcus aureus EUP MRSA002; for MIC: read-out: 100% inhibition; for MIC50: read-out: MIC50 (50%); for MIC80: read-out: MIC80 (80%)
Summary of the method: as §1

[10] = test system: Staphylococcus aureus EUP MRSA004; conditions: EUPMRSA004, Staphylococcus aureus EUP MRSA004; for MIC: read-out: 100% inhibition; for MIC50: read-out: MIC50 (50%); for MIC80: read-out: MIC80 (80%)
Summary of the method: as §1

[11] = test system: Staphylococcus aureus EUP SAU040; conditions: EUPSAU040, Staphylococcus aureus EUP SAU040; for MIC: read-out: 100% inhibition; for MIC50: read-out: MIC50 (50%); for MIC80: read-out: MIC80 (80%)
Summary of the method: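 CLSI broth microdilution; inoculum 2-8×10^5 CFU/ml; 2-fold series, top 128 mg/L; 30-37° C, 24-48 h, dark; visual read, 100% inhibition endpoint.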

[12] = test system: Staphylococcus aureus NRS1 (ATCC700699); conditions: Staphylococcus aureus NRS1 (ATCC700699); for MIC: read-out: 100% inhibition; for MIC50: read-out: MIC50 (50%); for MIC80: read-out: MIC80 (80%)
Summary of the method: as §1

[13] = test system: Staphylococcus aureus NRS2 (ATCC700698); conditions: Staphylococcus aureus NRS2 (ATCC700698); for MIC: read-out: 100% inhibition; for MIC50: read-out: MIC50 (50%); for MIC80: read-out: MIC80 (80%)
Summary of the method: as §1

[14] = test system: Staphylococcus aureus NRS382; conditions: Staphylococcus aureus NRS382; for MIC: read-out: 100% inhibition; for MIC50: read-out: MIC50 (50%); for MIC80: read-out: MIC80 (80%)
Summary of the method: as §1

[15] = test system: Staphylococcus aureus NRS383; conditions: Staphylococcus aureus NRS383; for MIC: read-out: 100% inhibition; for MIC50: read-out: MIC50 (50%); for MIC80: read-out: MIC80 (80%)
Summary of the method: as §1

[16] = test system: Staphylococcus aureus NRS384; conditions: Staphylococcus aureus NRS384; for MIC: read-out: 100% inhibition; for MIC50: read-out: MIC50 (50%); for MIC80: read-out: MIC80 (80%)
Summary of the method: as §1

[17] = test system: Staphylococcus epidermidis NRS122; conditions: Staphylococcus epidermidis NRS122; for MIC: read-out: 100% inhibition; for MIC50: read-out: MIC50 (50%); for MIC80: read-out: MIC80 (80%)
Summary of the method: as §1

[18] = test system: Staphylococcus epidermidis NRS7; conditions: Staphylococcus epidermidis NRS7; for MIC: read-out: 100% inhibition; for MIC50: read-out: MIC50 (50%); for MIC80: read-out: MIC80 (80%)
Summary of the method: as §1

Clc1ccc(Cc2sc(-c3nnn[nH]3)cc2-c2cccc(CC3CCCC3)c2)cc1 [DNM0610, 5-(5-(4-Chlorobenzyl)-4-(3-(cyclopentylmethyl)phenyl)thiophen-2-yl)-1H-tetrazole]
MIC (Bacillus cereus NCTC6349): 0.5 µg/mL (≈ 1.15 µM)
MIC50 (Bacillus cereus NCTC6349): 0.5 µg/mL (≈ 1.15 µM)
MIC80 (Bacillus cereus NCTC6349): 0.5 µg/mL (≈ 1.15 µM)
MIC [1]: 1 µg/mL (≈ 2.3 µM)
MIC50 [1]: 1 µg/mL (≈ 2.3 µM)
MIC80 [1]: 1 µg/mL (≈ 2.3 µM)
MIC [2]: 1 µg/mL (≈ 2.3 µM)
MIC50 [2]: 1 µg/mL (≈ 2.3 µM)
MIC80 [2]: 1 µg/mL (≈ 2.3 µM)
MIC [3]: 0.5 µg/mL (≈ 1.15 µM)
MIC50 [3]: 0.5 µg/mL (≈ 1.15 µM)
MIC80 [3]: 0.5 µg/mL (≈ 1.15 µM)
MIC [4]: 0.5 µg/mL (≈ 1.15 µM)
MIC50 [4]: 0.5 µg/mL (≈ 1.15 µM)
MIC80 [4]: 0.5 µg/mL (≈ 1.15 µM)
MIC [5]: 0.5 µg/mL (≈ 1.15 µM)
MIC50 [5]: 0.5 µg/mL (≈ 1.15 µM)
MIC80 [5]: 0.5 µg/mL (≈ 1.15 µM)
MIC [6]: 2 µg/mL (≈ 4.6 µM)
MIC50 [6]: 1 µg/mL (≈ 2.3 µM)
MIC80 [6]: 2 µg/mL (≈ 4.6 µM)
MIC [7]: 0.5 µg/mL (≈ 1.15 µM)
MIC50 [7]: 0.5 µg/mL (≈ 1.15 µM)
MIC80 [7]: 0.5 µg/mL (≈ 1.15 µM)
MIC [8]: 0.5 µg/mL (≈ 1.15 µM)
MIC50 [8]: 0.5 µg/mL (≈ 1.15 µM)
MIC80 [8]: 0.5 µg/mL (≈ 1.15 µM)
MIC [9]: 0.5 µg/mL (≈ 1.15 µM)
MIC50 [9]: 0.5 µg/mL (≈ 1.15 µM)
MIC80 [9]: 0.5 µg/mL (≈ 1.15 µM)
MIC [10]: ≤ 0.25 µg/mL
MIC50 [10]: ≤ 0.25 µg/mL
MIC80 [10]: ≤ 0.25 µg/mL
MIC [11]: 0.5 µg/mL (≈ 1.15 µM)
MIC50 [11]: 0.5 µg/mL (≈ 1.15 µM)
MIC80 [11]: 0.5 µg/mL (≈ 1.15 µM)
MIC [12]: ≤ 0.25 µg/mL
MIC50 [12]: ≤ 0.25 µg/mL
MIC80 [12]: ≤ 0.25 µg/mL
MIC [13]: 0.5 µg/mL (≈ 1.15 µM)
MIC50 [13]: 0.5 µg/mL (≈ 1.15 µM)
MIC80 [13]: 0.5 µg/mL (≈ 1.15 µM)
MIC [14]: 0.5 µg/mL (≈ 1.15 µM)
MIC50 [14]: 0.5 µg/mL (≈ 1.15 µM)
MIC80 [14]: 0.5 µg/mL (≈ 1.15 µM)
MIC [15]: 0.5 µg/mL (≈ 1.15 µM)
MIC50 [15]: 0.5 µg/mL (≈ 1.15 µM)
MIC80 [15]: 0.5 µg/mL (≈ 1.15 µM)
MIC [16]: ≤ 0.25 µg/mL
MIC50 [16]: ≤ 0.25 µg/mL
MIC80 [16]: ≤ 0.25 µg/mL
MIC [17]: 16 µg/mL (≈ 36.8 µM)
MIC50 [17]: 4 µg/mL (≈ 9.2 µM)
MIC80 [17]: 8 µg/mL (≈ 18.4 µM)
MIC [18]: 2 µg/mL (≈ 4.6 µM)
MIC50 [18]: 1 µg/mL (≈ 2.3 µM)
MIC80 [18]: 1 µg/mL (≈ 2.3 µM)

Fc1ccc(-c2cc(-c3nnn[nH]3)sc2-c2ccc(F)c3ccccc23)c2ccccc12 [DNM0537, 5-(4,5-Bis(4-fluoronaphthalen-1-yl)thiophen-2-yl)-1H-tetrazole]
MIC (Bacillus cereus NCTC6349): ≤ 0.25 µg/mL
MIC50 (Bacillus cereus NCTC6349): ≤ 0.25 µg/mL
MIC80 (Bacillus cereus NCTC6349): ≤ 0.25 µg/mL
MIC [1]: 1 µg/mL (≈ 2.27 µM)
MIC50 [1]: 0.5 µg/mL (≈ 1.14 µM)
MIC80 [1]: 1 µg/mL (≈ 2.27 µM)
MIC [2]: 0.5 µg/mL (≈ 1.14 µM)
MIC50 [2]: 0.5 µg/mL (≈ 1.14 µM)
MIC80 [2]: 0.5 µg/mL (≈ 1.14 µM)
MIC [3]: 0.5 µg/mL (≈ 1.14 µM)
MIC50 [3]: 0.5 µg/mL (≈ 1.14 µM)
MIC80 [3]: 0.5 µg/mL (≈ 1.14 µM)
MIC [4]: 1 µg/mL (≈ 2.27 µM)
MIC50 [4]: 0.5 µg/mL (≈ 1.14 µM)
MIC80 [4]: 1 µg/mL (≈ 2.27 µM)
MIC [5]: ≤ 0.25 µg/mL
MIC50 [5]: ≤ 0.25 µg/mL
MIC80 [5]: ≤ 0.25 µg/mL
MIC [6]: ≤ 0.25 µg/mL
MIC50 [6]: ≤ 0.25 µg/mL
MIC80 [6]: ≤ 0.25 µg/mL
MIC [7]: ≤ 0.25 µg/mL
MIC50 [7]: ≤ 0.25 µg/mL
MIC80 [7]: ≤ 0.25 µg/mL
MIC [8]: ≤ 0.25 µg/mL
MIC50 [8]: ≤ 0.25 µg/mL
MIC80 [8]: ≤ 0.25 µg/mL
MIC [9]: 1 µg/mL (≈ 2.27 µM)
MIC50 [9]: 1 µg/mL (≈ 2.27 µM)
MIC80 [9]: 1 µg/mL (≈ 2.27 µM)
MIC [10]: 1 µg/mL (≈ 2.27 µM)
MIC50 [10]: 0.5 µg/mL (≈ 1.14 µM)
MIC80 [10]: 1 µg/mL (≈ 2.27 µM)
MIC [11]: 1 µg/mL (≈ 2.27 µM)
MIC50 [11]: 1 µg/mL (≈ 2.27 µM)
MIC80 [11]: 1 µg/mL (≈ 2.27 µM)
MIC [12]: ≤ 0.25 µg/mL
MIC50 [12]: ≤ 0.25 µg/mL
MIC80 [12]: ≤ 0.25 µg/mL
MIC [13]: 1 µg/mL (≈ 2.27 µM)
MIC50 [13]: 1 µg/mL (≈ 2.27 µM)
MIC80 [13]: 1 µg/mL (≈ 2.27 µM)
MIC [14]: ≤ 0.25 µg/mL
MIC50 [14]: ≤ 0.25 µg/mL
MIC80 [14]: ≤ 0.25 µg/mL
MIC [15]: ≤ 0.25 µg/mL
MIC50 [15]: ≤ 0.25 µg/mL
MIC80 [15]: ≤ 0.25 µg/mL
MIC [16]: ≤ 0.25 µg/mL
MIC50 [16]: ≤ 0.25 µg/mL
MIC80 [16]: ≤ 0.25 µg/mL
MIC [17]: 4 µg/mL (≈ 9.08 µM)
MIC50 [17]: 4 µg/mL (≈ 9.08 µM)
MIC80 [17]: 4 µg/mL (≈ 9.08 µM)
MIC [18]: 1 µg/mL (≈ 2.27 µM)
MIC50 [18]: 0.5 µg/mL (≈ 1.14 µM)
MIC80 [18]: 1 µg/mL (≈ 2.27 µM)
